These results are taken from PubChem BioAssay (NCI).

SMILES strings stand for the structures. Values joined by “and” are separate entries in the source; they are usually repeats but may differ in a detail not shown here. Equal values may be shown once.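 These data come from cells grown in 96-well plates and exposed to compound for 48 hours at five concentrations. Abbreviation: GI50, concentration required for 50% inhibition of growth. TGI marks complete inhibition of growth.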 *1 amine or outer side, *2 acyl side, *3 side chain or, on linkers, in order; H or OH if unused. Where a SMILES comes first, the peptide text is derived from it. Bridges are numbered along the chain shown (N, C = ends). [ ]: non-standard residue; d: D form. The star is where a group is joined. ξ: configuration not given here. X4 = CCC(C)C(N[*:1])C(O)CC(=O)O[C@H](C(=O)C(C)C(=O)[*:2])C(C)C; NMeY = CN[C@@H](Cc1ccc(O)cc1)C(=O)O; ξNMeL = CNC(CC(C)C)C(=O)O; Cbz = O=C(OCc1ccccc1)*; Boc = CC(C)(C)OC(=O)*; Aib = CC(C)(N)C(=O)O; ξT = CC(O)C(N)C(=O)O; OBn = c1ccc(CO*)cc1; OtBu = CC(C)(C)O*; βAla = NCCC(=O)O

What all share (experiment): inhibition of tumour cell growth, NCI panel, 48 h
Assay [1] concerns U251 CNS.
For assay [2], the system named is LOX IMVI melanoma.
Assay [3] deals with SF-539 CNS.
Assay [4] relates to SN12C renal.
The subject of assay [5] is OVCAR-4 ovarian.
Assay [6] relates to SK-MEL-2 melanoma.
Assay [7] concerns K-562 leukemia.
For assay [8], the system named is TK-10 renal.
Assay [9] deals with BT-549 breast.

With `O=c1[nH]nc(Cc2ccc(Cl)cc2)n1O`, the TGI in [1], in assay [2], in assay [3], in assay [4], in assay [5] and in [6] was greater than 100 µM in each case. For the same molecule, the TGI in assay [7] and in assay [8] was greater than 100 µM each time.

Regarding `CC#CC(O)(C(=O)OC1CCCN(C)C1)C1=CC=CCC1` (configuration not stated), the TGI in assay [1], in assay [2], in assay [3], in assay [4], in assay [5] and in assay [6] was greater than 100 µM each time. Also, the TGI in [7] and in [8] was greater than 100 µM in each case.

For the molecule `CC[N+](C)(CC)CCN1C(=O)c2ccccc2S1(=O)=O`, the TGI in assay [9], in assay [1], in assay [2], in assay [3], in assay [4] and in assay [5] was greater than 100 µM in each case. The TGI in assay [6] and in assay [8] was greater than 100 µM each time.

In the case of `NC(=O)CC(Nc1ncc2c(n1)-c1ccccc1OC2)C(=O)O` (configuration not stated), the TGI in assay [1], in assay [2], in [3], in [4], in [5] and in assay [6] was greater than 100 µM each time. Also, the TGI in assay [7] and in assay [8] was greater than 100 µM in each case.

Take `CCCCN(c1ccccc1)c1ncnc2c1cnn2C`: the TGI is 62.1 µM in [9]; greater than 100 µM in [1]; greater than 100 µM in [2]; greater than 100 µM in assay [4]; greater than 100 µM in assay [5]; 78.1 µM in [6]. Also, the TGI in assay [7] and in assay [8] was greater than 100 µM throughout.

As for `CSC1SCC2C(=O)N(C)C3(CC3C)C(=O)OCC(NC(=O)c3nc4ccccc4cc3O)C(=O)NC(C)C(=O)N(C)C1C(=O)N(C)C1(CC1C)C(=O)OCC(NC(=O)c1nc3ccccc3cc1O)C(=O)NC(C)C(=O)N2C` (configuration not stated), the TGI is less than 0.0001 µM in assay [1]; less than 0.0001 µM in assay [2]; less than 0.0001 µM in assay [3]; 0.000325 µM in assay [5]; less than 0.0001 µM in [7]; 0.000416 µM in assay [8].

Take `CC(C)(C)OC(=O)CC(NC(=O)OC(C)(C)C)C(=O)NC(CCCCNC(=O)OCc1ccccc1)C(=O)NC(C)(C)C(=O)NCCC(=O)OCc1ccccc1` (configuration not stated) (Boc-D(OtBu)K(Cbz)[Aib][βAla]-OBn; configuration not given here): the TGI in assay [9], in [1], in [2], in [3], in assay [4] and in assay [5] was greater than 100 µM in each case. Moreover, the TGI in [7] and in assay [8] was greater than 100 µM in each case.

Take `NC(CCCCNC(=O)OCc1ccccc1)C(=O)NC(CCCCNC(=O)OCc1ccccc1)C(=O)ON1C(=O)CCC1=O` (configuration not stated): the TGI in assay [9], in [1], in assay [4], in assay [6], in assay [7] and in [8] was greater than 100 µM in each case.

As to `CSc1nncc(-c2cc3c(c(SC)n2)CCC3)n1`, the TGI in [9], in assay [1], in assay [4], in assay [5], in assay [6] and in assay [8] was greater than 100 µM each time.

As for `O=C1[C@@H]2Cc3c([nH]c4ccccc34)C(C3CCCCC3)N2C(=O)[C@@H]2CCCN12` (some centres not stated), the TGI is 88 µM in [9]; greater than 100 µM in assay [1]; 73.9 µM in [2]; 63.4 µM in [4]; greater than 100 µM in [5]; 39.7 µM in assay [6]. Besides, the TGI in assay [7] and in assay [8] was greater than 100 µM in each case.

With `COc1cccc(-c2nc3sccn3c2-c2ccnc(NCCNC(=O)Nc3cccc(C(F)(F)F)c3)n2)c1`, the GI50 was 3.95 µM in [1]; 4.11 µM in [2]; 3.83 µM in assay [3]; 4.03 µM in assay [4]; 3.78 µM in assay [5]; 2.03 µM in [6]. For the same molecule, the values for the GI50 in [7] and in assay [8] were 3.48 µM and 3.6 µM, respectively. Also, the TGI was 19.8 µM in [1]; greater than 100 µM in [2]; 17.1 µM in [3]; 26.5 µM in [4]; 34.1 µM in assay [5]; 4.46 µM in [6]. The TGI in assay [7] was greater than 100 µM; in assay [8], 18.8 µM.

In the case of `Cc1[nH]c(-c2ccccc2)c(-c2ccc(Cl)cc2)c1C(=O)ONC(=O)c1ccccc1`, the TGI in [9] was 9.94 µM; in assay [1], 3.6 µM; in [2] it was 2.87 µM; in assay [3] it was 6.02 µM; in assay [4] it was 5.21 µM; in assay [6], 11.2 µM. Moreover, the figures for the TGI in assay [7] and in assay [8] were 16.7 µM and 9.76 µM, respectively.

Regarding `COC(=O)c1cncc2c1CC1C3(C(=O)OC)C=NC(C4C(CO)=CCC43)C21C` (configuration not stated), the TGI in assay [1], in assay [2], in [3], in [4], in assay [5] and in assay [6] was greater than 100 µM throughout. Further, the TGI in [8] was greater than 100 µM.

Take `O=C(NNC(=S)Nc1ccccc1)c1csc(NC(=S)NC2CCCCC2)n1`: the TGI in [9] was greater than 100 µM; in assay [1], greater than 100 µM; in [2], 69.5 µM; in [3] it was greater than 100 µM; in [4] it was greater than 100 µM; in [6], greater than 100 µM. In addition, the TGI in assay [8] was greater than 100 µM.

Consider `N#CCc1nc(C#N)c(N)o1`, for which the TGI in assay [9], in [1], in assay [2], in [3], in assay [4] and in assay [5] was greater than 100 µM throughout. In addition, the TGI in assay [6] and in [8] was greater than 100 µM in each case. For the same molecule, the GI50 in assay [2] was greater than 100 µM.

As to `COC(=O)C(C)Sc1nc2cc(Cl)ccc2s1` (configuration not stated), the TGI in assay [9], in assay [1], in assay [3], in assay [4], in assay [5] and in [7] was greater than 100 µM throughout.

On to `OCCN=C1Nc2ccc(Cl)cc2C(=S)N2CSC[C@@H]12`, for which the TGI in [1], in assay [3], in assay [4], in assay [5], in assay [6] and in assay [7] was greater than 100 µM throughout.

`CCOC(=O)c1c(N2CCOCC2)[nH]c(=O)c(C(c2ccc(OC)cc2)c2c(O)c(C(=O)OCC)c(N3CCOCC3)[nH]c2=O)c1O`: the TGI in assay [9], in assay [1], in assay [2], in [3], in assay [4] and in [5] was greater than 100 µM throughout. The TGI in [7] and in assay [8] was greater than 100 µM each time.

`O=C(O)c1ccc(Nc2nc3cc(C(F)(F)F)ccc3nc2C(=O)O)cc1`: the TGI in [9], in [1], in assay [2], in [4], in [5] and in [6] was greater than 100 µM throughout. This molecule also yielded a TGI in [7] greater than 100 µM.

For `O=C(NCCNCCO)N/N=C/c1ccc(Cl)cc1`, the TGI in [9], in assay [1], in assay [3], in assay [4], in assay [6] and in assay [7] was greater than 100 µM throughout. This molecule displayed a TGI in assay [8] greater than 100 µM.

Consider `O=C(c1ccco1)N(C(=S)OCc1ccccn1)c1ccccc1`, for which the TGI in assay [9], in assay [1], in assay [2], in assay [3], in assay [4] and in [6] was greater than 100 µM throughout. The TGI in assay [7] and in assay [8] was greater than 100 µM in each case.

`O=C(N=Nc1ccccc1Br)NNc1ccccc1Br`: the TGI in [9], in assay [1], in assay [2], in assay [4], in assay [5] and in assay [6] was greater than 100 µM in each case. For the same molecule, the TGI in assay [7] and in assay [8] was greater than 100 µM each time.

As for `O=C(NCCO)c1ccc(Cl)cc1`, the TGI in assay [9], in [1], in [2], in assay [4], in [5] and in assay [6] was greater than 100 µM throughout. The TGI in [7] and in assay [8] was greater than 100 µM throughout.

For the molecule `CCC(C)C1NC(=O)C(NC(=O)C(CC(C)C)N(C)C(=O)[C@@H]2CCCN2)C(C)OC(=O)[C@H](Cc2ccc(OC)cc2)N(C)C(=O)[C@@H]2CCCN2C(=O)[C@H](CC(C)C)NC(=O)C(C)C(=O)[C@H](C(C)C)OC(=O)CC1O` (some centres not stated) (H-P[ξNMeL][ξT][X4]LP[NMeY](Me); ester 3-C), the TGI in assay [9] is 0.0104 µM; in [1], 0.0114 µM; in assay [2], 0.00206 µM and 0.0101 µM; in assay [3], 0.00208 µM; in assay [5] it was 0.00369 µM and 0.0185 µM; in [8] it was 0.027 µM and 0.141 µM.

With `COc1cc2ccnc3c2c(c1O)N(C)C=C3`, the TGI in [9] is 22.9 µM; in [1], greater than 100 µM; in assay [2], greater than 50.6 µM; in assay [4] it was greater than 61.2 µM; in assay [5], 32.4 µM; in assay [6], 33.9 µM. Moreover, the TGI in assay [7] was greater than 100 µM; in assay [8], 32.9 µM.

On to `C/C=C/[C@H]1O[C@@](OC)([C@@H](C)[C@H](O)[C@H](C)[C@H]2OC(=O)/C(OC)=C/C(C)=C/[C@@H](C)[C@@H](O)[C@@H](C)[C@@H](O)[C@H](C)C/C(C)=C/C=C/[C@@H]2OC)CC(OC2CC(O)C(OC(N)=O)C(C)O2)[C@@H]1C` (some centres not stated), for which the TGI in [9] was 17.6 µM; in assay [1], 9.71 µM; in [2], less than 0.01 µM; in [3], less than 0.01 µM; in assay [4], 9.3 µM; in assay [5], 18.3 µM. Also, the TGI in assay [6] is 1.15 µM; in assay [8], 23.3 µM.

Turning to `CCOC(=O)c1sc2c(c1OC(=O)c1ccccc1)c(=O)n(-c1ccccc1)c(=S)n2-c1ccccc1`, the TGI is 46.5 µM in assay [1]; greater than 100 µM in assay [2]; 47.7 µM in assay [3]; greater than 100 µM in assay [4]; 32 µM in assay [5]; greater than 100 µM in [7]. Moreover, the TGI in assay [8] is greater than 100 µM.

In the case of `COc1ccc(OC)c2cc(Cc3ccc(N(C)C)cc3)c(=O)c(Cc3ccc(N(C)C)cc3)cc12`, the TGI in assay [9], in assay [1], in assay [3], in assay [4], in assay [5] and in [7] was greater than 100 µM throughout.

Take `Nc1nc2c(ncn2C2C=CC(CO)O2)c(=O)[nH]1` (configuration not stated): the TGI in [9], in assay [1], in assay [2], in assay [4], in assay [5] and in [6] was greater than 100 µM throughout. This molecule yielded a TGI in [8] greater than 100 µM.

`COc1c/c(=C2/C=c3ccccc3=N2)[nH]/c1=C/c1[nH]c(C)cc1C`: the GI50 was 0.0454 µM in assay [1], 0.106 µM in [5], 0.029 µM in assay [6] and 0.152 µM in [7]. The TGI in assay [1] was 1.52 µM; in assay [5], greater than 100 µM; in assay [6], 0.119 µM; in [7] it was 9.91 µM.

With `Cc1ccc(O)c(C2=NNC(c3cccc(Br)c3)C2)c1` (configuration not stated), the TGI in assay [9], in [1], in [2], in [3], in [4] and in assay [6] was greater than 100 µM in each case. The TGI in assay [7] and in assay [8] was greater than 100 µM in each case.
